# Article PMC12505664, “Enflicoxib for the long-term management of canine osteoarthritis—External validation of a population pharmacokinetic model in dogs with osteoarthritis” (Frontiers in Veterinary Science, 2025)
# Like-named read-outs stand apart in the source and are kept apart here.
# Key:
# [1] = overdose study, repeated weekly administrations, Beagle dogs; cited from earlier work
# [2] = design: method as in PMID 34854245; conditions: popPK model, cited from earlier work
# [3] = design: method as in PMID 34160092; conditions: previously validated method, cited from earlier work
# [4] = Plasma levels of enflicoxib and pyrazol metabolite in the 6-month field clinical study (HPLC-MS/MS); assay type: in vivo, client-owned dogs with OA; conditions: for Mean plasma level: oral 8 mg/kg then 4 mg/kg weekly
# Procedure: A prospective, multisite, blinded, randomized, placebo-controlled, parallel-group field study was performed in accordance with Good Clinical Practice standards ([16]). The study aimed to confirm the safety and efficacy of enflicoxib treatment of pain and inflammation associated with naturally occurring canine OA in dogs of any breed and sex treated for 6 months. The protocol was approved by the regulatory authorities of both Portugal and Hungary. Written informed consent was obtained from all dog owners prior to enrolment of their dogs. Dogs remained under the care of their owners at home throughout the study.
# Before enrolment, all dogs underwent a physical examination, and blood and urine samples were taken. After enrollment, dogs were randomized in a predefined enflicoxib:placebo ratio of 3:1. Enflicoxib was dosed orally at weekly intervals, with an initial dose of 8 mg/kg, followed by once-a-week maintenance doses of 4 mg/kg for a total of 26 weeks. Dogs in the enflicoxib group received Daxocox® tablets (Ecuphar/Animalcare group), while dogs in the placebo group received the same formulation without the active ingredient under the same posology (number of tablets and dosing interval). […] No positive control was included due to difficulties in maintaining blinding with products under different posology during the entire follow-up period.
# Two blood samples for popPK analysis were collected from all animals enrolled in the study one on day 44(±2 days)/1.5 months, (similar to the last sample taken in the previous clinical studies), after clinical assessment of pain and lameness and prior to treatment administration and another one at the end of the study on day 189/6 months (±2 days), or individual premature study termination day. Day 189 corresponds to the trough concentration after the 27th weekly administration (PK sample taken at the end of the weekly dosing interval). Meanwhile, day 44 corresponds to a PK sample obtained 2 days after the 7th weekly administration. The veterinary practices had the necessary resources and adequate freezing equipment for the long-term storage of plasma samples. Blood samples were collected into potassium-3-ethylenediaminetetraacetic acid (K3EDTA) labeled tubes, which were immediately centrifuged at ~2,500g for 10 min (at +4 °C whenever possible) to obtain plasma. Once received, plasma was transferred into two labeled propylene tubes (aliquots 1 and 2). Each plasma aliquot was stored frozen at a nominal temperature of −20 (±2) °C until shipment to the Laboratory of analysis Welab Barcelona (Parc Científic de Barcelona, C/Baldiri Reixac 4-12, 08028, Barcelona). The maximum storage time for the samples was 376 days at nominally −20 °C/−80 °C. Considering the long-term stability of enflicoxib and its metabolite in dog plasma samples stored at −20 °C, which spans a minimum of 402 days, the stability of the study samples was guaranteed for the entire duration of the study. Samples were analyzed without information on the treatment allocation (laboratory-blinded study).
# Enflicoxib and pyrazol metabolite plasma levels were measured by a previously fully validated high-performance liquid chromatography (HPLC)-method coupled with tandem mass spectrometry (MS/MS) detection as described in Homedes et al. ([4]).
# [5] = design: method as in PMID 34160092; conditions: Beagle dogs, oral enflicoxib; cited from earlier work
# [6] = Maximum a posteriori Bayesian (MAPB) estimation of individual PK parameters in dogs with OA; assay type: in vivo
# Excerpt: As a similar PK behavior between populations was concluded, the same popPK model could be used, and a Bayesian approach was used for the determination of individual enflicoxib and the pyrazol metabolite exposure in osteoarthritic animals.
# A maximum a posteriori Bayesian (MAPB) estimation using the post hoc subroutine in NONMEM was used to provide the individual PK parameters in osteoarthritic dogs.
# MAPB estimation applied likelihood maximization in the form of minimizing the objective function (minus 2 log likelihood), to estimate individual PK parameters of each dog with OA. In this analysis, the MAPB estimation incorporated both a priori PK information, that is, the established PK model of enflicoxib and the pyrazol metabolite in healthy Beagle dogs, and a posteriori PK data, which corresponds to PK data from osteoarthritic dogs. The individual PK parameters along with individual predicted PK profiles for each dog treated with enflicoxib were calculated by fitting the animal PK dataset, which includes dosing, sampling times, parent and metabolite levels, and covariate information, to the established population enflicoxib and the pyrazol metabolite PK model in healthy Beagle dogs.
# The maximum a posteriori Bayesian (MAPB) estimation was applied to provide the most likely individual PK profile for each dog with OA, using the “POSTHOC” subroutine and $ESTIMATION command set to MAXEVAL=0 in NONMEM.
# Individual PK parameters and individual PK profiles of enflicoxib and the pyrazol metabolite were estimated for each dog.
# Finally, the Bayesian approach enabled the estimation of the main individual PK parameters of enflicoxib and the pyrazol metabolite. Using these individual PK parameters, predicted profiles for each animal were estimated, allowing the calculation of the derived exposure parameters, such as Cmax, Cmin, AUCτ, and T1/2 in all treated dogs. The distribution and the mean estimates of enflicoxib and the pyrazol metabolite PK parameters at selected time points are depicted in Supplementary Figures S3, S4, respectively.
# [7] = test system: canine osteoarthritis; design: method as in Salichs et al., Vet Rec. 2022; conditions: Mavacoxib group n=58, ref Salichs et al., Vet Rec. 2022, cited from earlier work
# [8] = metabolite, typical value at 9.9 kg
# [9] = weeks 12–26, Bayesian predicted profiles
structure (smiles),measurement,setting,value
NS(=O)(=O)c1ccc(-n2nc(C(F)(F)F)cc2-c2ccc(F)cc2F)cc1 [Pyrazol metabolite],Dose proportionality of pharmacokinetics,[1],dose-proportional pharmacokinetics
same,IIV of CLM/F (apparent clearance),[2]; interindividual variability as % CV,31%
same,Residual variability,"[2]; log error model, % CV",20%
same,"CLM/F = θ7·(WGT/9.9)^0.75, θ7 estimate (apparent clearance)",[2]; [8],0.111 L/h
same,"VM/F = θ4·(WGT/9.9)^1.0, θ4 estimate (apparent volume of distribution, central compartment)",[2]; [8],6.59 L
same,Stability in dog plasma,[3]; following 4 freeze–thaw cycles,stable
same,Stability in dog plasma,[3]; nominally −20 °C for 402 days,stable
same,Stability in dog plasma,[3]; room temperature for 4 h,stable
same,Long-term stability in dog plasma samples,[3]; stored at −20 °C,≥ 402 days
same,Mean plasma level,"[4]; day 44 (2 days after 7th weekly administration), N=75","2,105.6 ng/mL"
same,Max plasma level,"[4]; day 44, N=75","4,728.5 ng/mL"
same,Min plasma level,"[4]; day 44, N=75",2.5 ng/mL
same,Probability (%) concentration < 10 ng/mL,"[4]; day 44, N=75",4.0%
same,Probability (%) concentration < LOQ,"[4]; day 44, N=75",4.0%
same,Probability (%) concentration < 10 ng/mL,"[4]; day 44, N=75, listed as pyrazol metabolite",4%
same,Mean plasma level,"[4]; day 93 (premature study termination), N=2","3,928.8 ng/mL"
same,Max plasma level,"[4]; day 93, N=2","5,029.0 ng/mL"
same,Min plasma level,"[4]; day 93, N=2","2,828.5 ng/mL"
same,Probability (%) concentration < 10 ng/mL,"[4]; day 93, N=2",0.0%
same,Probability (%) concentration < LOQ,"[4]; day 93, N=2",0.0%
same,Mean plasma level,"[4]; day 189 (trough after 27th weekly administration), N=65","2,317.4 ng/mL"
same,Max plasma level,"[4]; day 189, N=65","7,541.8 ng/mL"
same,Min plasma level,"[4]; day 189, N=65",2.5 ng/mL
same,Probability (%) concentration < 10 ng/mL,"[4]; day 189, N=65",4.6%
same,Probability (%) concentration < LOQ,"[4]; day 189, N=65",1.5%
same,Probability (%) concentration < 10 ng/mL,"[4]; day 189, N=65, listed as pyrazol metabolite",5%
same,mean terminal elimination half-life (t 1/2),[5],17 days
same,Time-dependent pharmacokinetics or over-accumulation,[6]; 6 months of weekly treatment,no evidence of time-dependent pharmacokinetics or over-accumulation
same,Time to PK steady-state,[6]; weekly treatment,10–12 weeks
same,AUCτ,[6]; [9],"16,742 ng/ml·day"
same,Cmax,[6]; [9],"~ 2,490 ng/mL"
same,Cmin,[6]; [9],"2,243 ng/mL"
NS(=O)(=O)c1ccc(-n2nc(C(F)(F)F)cc2-c2ccc(F)cc2)cc1 [Mavacoxib],Number of animals presenting AEs (%): Emesis or nausea,"[7]; AEs classified A, B or O",4 (6.9)
same,Emesis and nausea: Number of events,[7]; AEs related to the GI system,6
same,Diarrhoea / pasty stools: Duration range,[7],1 to 4 days
same,Diarrhoea / pasty stools: Mean duration,[7],2 days
same,Diarrhoea / pasty stools: Number of events,[7],3
same,Diarrhoea / pasty stools: Treatment needed,[7],0
same,Emesis and nausea: Mean duration,[7],4.2 days
same,Emesis and nausea: Treatment needed,[7],2
same,Number of animals presenting AEs (%): Abdominal pain,[7],0
same,Number of animals presenting AEs (%): Acute renal failure,[7],1 (1.7)
same,Number of animals presenting AEs (%): Apathy,[7],0
same,Number of animals presenting AEs (%): Constipation,[7],1 (1.7)
same,Number of animals presenting AEs (%): Diarrhoea or pasty stools,[7],3 (5.2)
same,Number of animals presenting AEs (%): Increased salivation,[7],0
same,Number of animals presenting AEs (%): Polydipsia,[7],0
same,Number of animals presenting AEs (%): Total,[7],6 (10.3)
same,Number of animals presenting AEs (%): Weight loss,[7],0
same,Emesis and nausea: Duration range,[7]; upper end one animal,1 to 14 days
